{"source": "paper PMC5820429", "about": "(Influenza and Other Respiratory Viruses, 2018)", "parameters": "species or system patients", "conditions": "in vivo", "data": [{"smiles": "CCOC(=O)C1=C[C@@H](OC(CC)CC)[C@H](NC(C)=O)[C@@H](N)C1", "note": "[oseltamivir]", "values": [{"measurement": "Time to alleviation of symptoms, shorter in treated vs non‐treated patients", "result": 1, "unit": "days"}]}]}
